# ChEMBL document CHEMBL3885861, “Open TG-GATES”
# Species on record: Rattus norvegicus
# Assay: Open TG-GATES - Regimen: Daily Repeat
# Format: toxicity, organism-based, Sprague-Dawley
# Set-up: regimen Daily Repeat, gender Male, age 6 weeks
# Details: in vivo, po, 300 mg/kg, route gavage, dose level Middle; for APTT / Bas / Eos / Fbg / Hb / Ht / Lym / MCH / MCHC / MCV / Mono / Neu / PT / Plat / RBC / Ret / WBC: tissue Blood; for KIDNEY_L / KIDNEY_R / KIDNEY_TOTAL: tissue Kidney; for LIVER: tissue Liver; for A/G / ALP / ALT / AST / BUN / CRE / Ca / Cl / DBIL / GLC / IP / K / LDH / Na / PL / RALB / TBIL / TC / TG / TP / gamma-GTP: tissue Plasma
compound,measurement,setting,value
O=C(OC[C@H]1O[C@@H](OC(=O)c2cc(O)c(O)c(OC(=O)c3cc(O)c(O)c(O)c3)c2)[C@H](OC(=O)c2cc(O)c(O)c(OC(=O)c3cc(O)c(O)c(O)c3)c2)[C@@H](OC(=O)c2cc(O)c(O)c(OC(=O)c3cc(O)c(O)c(O)c3)c2)[C@@H]1OC(=O)c1cc(O)c(O)c(OC(=O)c2cc(O)c(O)c(O)c2)c1)c1cc(O)c(O)c(OC(=O)c2cc(O)c(O)c(O)c2)c1 [TANNIC ACID],TERMINAL_BW,"72 h, time 3 day",215.8 g
same,APTT,"72 h, time 3 day",16.1 s
same,Bas,"72 h, time 3 day",0%
same,Eos,"72 h, time 3 day",1%
same,Fbg,"72 h, time 3 day",240.8 mg/dL
same,Hb,"72 h, time 3 day",13.1 g/dL
same,Ht,"72 h, time 3 day",39.3%
same,Lym,"72 h, time 3 day",76.8%
same,MCH,"72 h, time 3 day",21.6 pg
same,MCHC,"72 h, time 3 day",33.3%
same,MCV,"72 h, time 3 day",64.9 fL
same,Mono,"72 h, time 3 day",10%
same,Neu,"72 h, time 3 day",12.4%
same,PT,"72 h, time 3 day",11.5 s
same,Plat,"72 h, time 3 day",118.8 x10_4/uL
same,RBC,"72 h, time 3 day",606.2 x10_4/ul
same,Ret,"72 h, time 3 day",7.7%
same,WBC,"72 h, time 3 day",77.2 x10_2/uL
same,KIDNEY_L,"72 h, time 3 day",1 g
same,KIDNEY_R,"72 h, time 3 day",1 g
same,KIDNEY_TOTAL,"72 h, time 3 day",1.9 g
same,LIVER,"72 h, time 3 day",10.9 g
same,A/G,"72 h, time 3 day",2.1
same,ALP,"72 h, time 3 day",808.4 IU/L
same,ALT,"72 h, time 3 day",35 IU/L
same,AST,"72 h, time 3 day",62.8 IU/L
same,BUN,"72 h, time 3 day",17.8 mg/dL
same,CRE,"72 h, time 3 day",0.5 mg/dL
same,Ca,"72 h, time 3 day",10.9 mg/dL
same,Cl,"72 h, time 3 day",103.4 meq/L
same,DBIL,"72 h, time 3 day",0.004 mg/dL
same,GLC,"72 h, time 3 day",207.6 mg/dL
same,IP,"72 h, time 3 day",8.7 mg/dL
same,K,"72 h, time 3 day",4.6 meq/L
same,LDH,"72 h, time 3 day",83 IU/L
same,Na,"72 h, time 3 day",139 meq/L
same,PL,"72 h, time 3 day",159.2 mg/dL
same,RALB,"72 h, time 3 day",3.8 g/dL
same,TBIL,"72 h, time 3 day",0.3 mg/dL
same,TC,"72 h, time 3 day",84.6 mg/dL
same,TG,"72 h, time 3 day",109.2 mg/dL
same,TP,"72 h, time 3 day",5.6 g/dL
same,gamma-GTP,"72 h, time 3 day",0.6 IU/L
same,TERMINAL_BW,"[…], time 7 day",250.4 g
same,TERMINAL_BW,"[…], time 14 day",315.8 g
same,TERMINAL_BW,"[…], time 28 day",397.8 g
same,APTT,"[…], time 7 day",17.1 s
same,Bas,"[…], time 7 day",0%
same,Eos,"[…], time 7 day",1.4%
same,Fbg,"[…], time 7 day",226 mg/dL
same,Hb,"[…], time 7 day",13.4 g/dL
same,Ht,"[…], time 7 day",40.6%
same,Lym,"[…], time 7 day",81.2%
same,MCH,"[…], time 7 day",21.3 pg
same,MCHC,"[…], time 7 day",33.1%
same,MCV,"[…], time 7 day",64.2 fL
same,Mono,"[…], time 7 day",4.8%
same,Neu,"[…], time 7 day",12.8%
same,PT,"[…], time 7 day",10.9 s
same,Plat,"[…], time 7 day",123.2 x10_4/uL
same,RBC,"[…], time 7 day",631.8 x10_4/ul
same,Ret,"[…], time 7 day",6.5%
same,WBC,"[…], time 7 day",103.7 x10_2/uL
same,APTT,"[…], time 14 day",16.7 s
same,Bas,"[…], time 14 day",0%
same,Eos,"[…], time 14 day",1.2%
same,Fbg,"[…], time 14 day",261.2 mg/dL
same,Hb,"[…], time 14 day",13.7 g/dL
same,Ht,"[…], time 14 day",41.1%
same,Lym,"[…], time 14 day",75.4%
same,MCH,"[…], time 14 day",20.7 pg
same,MCHC,"[…], time 14 day",33.4%
same,MCV,"[…], time 14 day",62.1 fL
same,Mono,"[…], time 14 day",8%
same,Neu,"[…], time 14 day",15.4%
same,PT,"[…], time 14 day",11.5 s
same,Plat,"[…], time 14 day",123.3 x10_4/uL
same,RBC,"[…], time 14 day",662.6 x10_4/ul
same,Ret,"[…], time 14 day",5.5%
same,WBC,"[…], time 14 day",101.9 x10_2/uL
same,APTT,"[…], time 28 day",16.6 s
same,Bas,"[…], time 28 day",0%
same,Eos,"[…], time 28 day",1.8%
same,Fbg,"[…], time 28 day",232.8 mg/dL
same,Hb,"[…], time 28 day",15 g/dL
same,Ht,"[…], time 28 day",45.2%
same,Lym,"[…], time 28 day",77.8%
same,MCH,"[…], time 28 day",19.6 pg
same,MCHC,"[…], time 28 day",33.2%
same,MCV,"[…], time 28 day",59.1 fL
same,Mono,"[…], time 28 day",6.2%
same,Neu,"[…], time 28 day",14.5%
same,PT,"[…], time 28 day",11.9 s
same,Plat,"[…], time 28 day",113.3 x10_4/uL
same,RBC,"[…], time 28 day",765.2 x10_4/ul
same,Ret,"[…], time 28 day",3%
same,WBC,"[…], time 28 day",112.2 x10_2/uL
same,KIDNEY_L,"[…], time 7 day",1 g
same,KIDNEY_R,"[…], time 7 day",1 g
same,KIDNEY_TOTAL,"[…], time 7 day",2.1 g
same,KIDNEY_L,"[…], time 14 day",1.4 g
same,KIDNEY_R,"[…], time 14 day",1.3 g
same,KIDNEY_TOTAL,"[…], time 14 day",2.7 g
same,KIDNEY_L,"[…], time 28 day",1.4 g
same,KIDNEY_R,"[…], time 28 day",1.4 g
same,KIDNEY_TOTAL,"[…], time 28 day",2.9 g
same,LIVER,"[…], time 7 day",12.2 g
same,LIVER,"[…], time 14 day",14.7 g
same,LIVER,"[…], time 28 day",17 g
same,A/G,"[…], time 7 day",1.6
same,ALP,"[…], time 7 day",926.8 IU/L
same,ALT,"[…], time 7 day",35.8 IU/L
same,AST,"[…], time 7 day",62.2 IU/L
same,BUN,"[…], time 7 day",19.4 mg/dL
same,CRE,"[…], time 7 day",0.6 mg/dL
same,Ca,"[…], time 7 day",10.8 mg/dL
same,Cl,"[…], time 7 day",103 meq/L
same,DBIL,"[…], time 7 day",0.016 mg/dL
same,GLC,"[…], time 7 day",205.6 mg/dL
same,IP,"[…], time 7 day",7.9 mg/dL
same,K,"[…], time 7 day",4.5 meq/L
same,LDH,"[…], time 7 day",98.6 IU/L
same,Na,"[…], time 7 day",137.4 meq/L
same,PL,"[…], time 7 day",154.6 mg/dL
same,RALB,"[…], time 7 day",3.7 g/dL
same,TBIL,"[…], time 7 day",0.4 mg/dL
same,TC,"[…], time 7 day",81.2 mg/dL
same,TG,"[…], time 7 day",119.6 mg/dL
same,TP,"[…], time 7 day",6.1 g/dL
same,gamma-GTP,"[…], time 7 day",1.6 IU/L
same,A/G,"[…], time 14 day",1.7
same,ALP,"[…], time 14 day",702.2 IU/L
same,ALT,"[…], time 14 day",32.4 IU/L
same,AST,"[…], time 14 day",62.8 IU/L
same,BUN,"[…], time 14 day",20 mg/dL
same,CRE,"[…], time 14 day",0.6 mg/dL
same,Ca,"[…], time 14 day",10.7 mg/dL
same,Cl,"[…], time 14 day",103.4 meq/L
same,DBIL,"[…], time 14 day",0.008 mg/dL
same,GLC,"[…], time 14 day",202.4 mg/dL
same,IP,"[…], time 14 day",8.3 mg/dL
same,K,"[…], time 14 day",4.4 meq/L
same,LDH,"[…], time 14 day",83.4 IU/L
same,Na,"[…], time 14 day",139.8 meq/L
same,PL,"[…], time 14 day",151.6 mg/dL
same,RALB,"[…], time 14 day",3.8 g/dL
same,TBIL,"[…], time 14 day",0.3 mg/dL
same,TC,"[…], time 14 day",79.6 mg/dL
same,TG,"[…], time 14 day",116.8 mg/dL
same,TP,"[…], time 14 day",6 g/dL
same,gamma-GTP,"[…], time 14 day",1.4 IU/L
same,A/G,"[…], time 28 day",1.8
same,ALP,"[…], time 28 day",534 IU/L
same,ALT,"[…], time 28 day",32.2 IU/L
same,AST,"[…], time 28 day",55.5 IU/L
same,BUN,"[…], time 28 day",20 mg/dL
same,CRE,"[…], time 28 day",0.6 mg/dL
same,Ca,"[…], time 28 day",11 mg/dL
same,Cl,"[…], time 28 day",105.8 meq/L
same,DBIL,"[…], time 28 day",0.01 mg/dL
same,GLC,"[…], time 28 day",201.8 mg/dL
same,IP,"[…], time 28 day",7.9 mg/dL
same,K,"[…], time 28 day",4.5 meq/L
same,LDH,"[…], time 28 day",83.2 IU/L
same,Na,"[…], time 28 day",139.5 meq/L
same,PL,"[…], time 28 day",141.8 mg/dL
same,RALB,"[…], time 28 day",4 g/dL
same,TBIL,"[…], time 28 day",0.3 mg/dL
same,TC,"[…], time 28 day",70.2 mg/dL
same,TG,"[…], time 28 day",133.8 mg/dL
same,TP,"[…], time 28 day",6.2 g/dL
same,gamma-GTP,"[…], time 28 day",0.5 IU/L
